Patent publication US8299061B2, “Inhibitors of diacylglycerol acyltransferase” (Eli Lilly and Company, priority 2009, dated 2012)
Where “and” joins values, the source holds several entries; their conditions need not be identical. Equal entries are not always repeated. Where two headings read alike, the source gives them in different places.

How the values were obtained:
[1] = test system: C57 B16 mice fed a high fat diet; assay: Diet-induced obese mouse model; type: in vivo; details: twice daily oral gavage, meta-analysis; for Vehicle controlled percent Fat Mass Change, Mean: QNMR; for Vehicle controlled percent Food Intake Change, Mean: cumulative food intake
Method: Diet-induced obese mouse model: To measure effects on body weight and food intake, compounds are tested in C57 B16 mice fed a high fat diet (Research Diets D12492). Fourteen week old mice raised on D12492 are acclimated to the test vivarium for 2 weeks on a 12 hour light/dark cycle. Seven days prior to compound testing, animals are dosed by oral gavage either once or twice daily with a suitable vehicle in order to accustom the mice to handling. On day 6 of vehicle dosing, body composition is measured by quantitative nuclear magnetic resonance (QNMR). On day seven of vehicle dosing, animals are randomized by body weight and sorted into test groups (n=8). Compound dosing, twice daily, commences after 7 days of vehicle dosing. Animals are given compound 30 minutes prior to the dark phase of the dark/light cycle and, if desired, again 5.5 hours into the dark phase. Compound dosing continues for 15 to 22 days during which time food intake and body weight are measured daily. On day 14 of the experiment, body composition is measured for a second time by QNMR. On day 15, terminal bleeds are taken from two animals per test group at 0, 2, 4, and 6 hours after the final dose for measurement of test compound levels in plasma.
The data are analyzed using a meta-analysis. For the percent Body Weight gain (loss) and percent Fat Mass gain (loss), the measure of treatment effect in the meta-analysis is the group mean difference between treatment and control group. For the percent Cumulative Food Intake Change from Control (% CFICFC), the measure of treatment effect is % CFICFC itself. The overall treatment effect is estimated as the weighted average of treatment effect from individual studies, with the weights being the inverse of variance of individual study's treatment effect estimates. The homogeneity Q-test is performed. If the test is significant at 0.10 level, then a mixed-effect model is used to include both inter-study and intra-study variability. The weights are adjusted to the inverse of the sum of inter-study variance and the intra-study variance of treatment effect estimates from individual studies. The inter-study variance is estimated by the Paule-Mandel estimator. (References: Sutton, A. J., Jones, D. R., Abrams, K. R., Sheldon, T. A., and Song, F., Methods for Meta-analysis in Medical Research London, John Wiley, ISBN 0-471-49066-0 (2000). Dersimonian R., and Kacker, R., Random-effects model for meta-analysis of clinical trials: An update, Contemporary Clinical Trials 28 p 105-114 (2007). Compounds are tested substantially by the diet-induced obese mouse model method described herein.
For N-[1-[[(4R)-5,6-dihydro-4H-imidazo[1,2-a][1]benzazepin-4-yl]carbamoyl]cyclopropyl]-4-ethoxy-benzamide (Examples 1, 3, 57), three experiments were performed at doses of 1, 3, 10 and 30 mg/kg (two of the experiments) and 3 and 30 mg/kg (one of the experiments). Because the 3 and 30 mg/kg doses are common to the experiments, these doses are used to compare the results.
For 4-Chloro-N-[1-[[(4R)-5,6-dihydro-4H-imidazo[1,2-a][1]benzazepin-4-yl]carbamoyl]cyclopropyl]benzamide (Examples 2, 21, 58), two experiments were performed at doses of 3, 10, 30 and 60 mg/kg and at 0.3, 1, 3 and 10 mg/kg. For each of the experiments, the doses are given twice per day. Because the 3 and 10 mg/kg doses are common to the experiments, these doses are used to compare the results.

mouse 3T3-L1 adipocytes = assay: Adipocyte triglyceride synthesis assay; type: cell-based; details: inhibition of triglyceride synthesis, 14C acetate, 4 hours, geometric mean±standard error
Method: Adipocyte Triglyceride Synthesis Assay: This assay measures the ability of compounds to inhibit triglyceride synthesis in intact mouse 3T3-L1 adipocytes. Undifferentiated 3T3-L1 cells are cultured in 96 well plates at a density of 25,000 cells per well using standard tissue culture conditions. After two days in culture, the cells are differentiated to adipocytes by placing them in media supplemented with 0.5 mM 1-methyl-3-isobutylxanthine (IBMX), 10 μg/mL insulin and 1 μM dexamethasone. After five days in culture, cells are grown in media supplemented only with 10 μg/mL insulin. Assays are performed after cells have been in culture 12 days. To begin the assay, culture media is removed from the cells and replaced with 50 μl OptiMEM® media containing 0.375 μCi/well ^14C acetate. Cells are then incubated at 37° C. in 7.5% CO2 for 4 hours. At the end of this incubation, media is removed, cells are washed once with Hank's balanced salts, and 25 μl of 0.7% Triton® X-100 is added to each well and allowed to extract the cells for 5 minutes. At the end of this period, 75 μl of a solution containing 58.8% isopropanol, 14.7% n-heptane, 11.5% water, 12.5% ethanol, and 2.5% 1N sodium hydroxide is added to each well and plates are shaken on an orbital shaker for 2 minutes. 100 μl of heptane is then added and plates are shaken for another 2 minutes. […]

recombinant human DGAT-1 = target: T1, recombinant human DGAT-1 (Homo sapiens, UniProt O75907); assay: DGAT-1 enzyme assay; type: biochemical; details: recombinant human DGAT-1 expressed in sf9 insect cells; geometric mean±standard error
T1 construct: made in house; host or cells: sf9 insect cells (recombinant baculovirus); crude cell homogenate used
T1 sequence (O75907 1-488): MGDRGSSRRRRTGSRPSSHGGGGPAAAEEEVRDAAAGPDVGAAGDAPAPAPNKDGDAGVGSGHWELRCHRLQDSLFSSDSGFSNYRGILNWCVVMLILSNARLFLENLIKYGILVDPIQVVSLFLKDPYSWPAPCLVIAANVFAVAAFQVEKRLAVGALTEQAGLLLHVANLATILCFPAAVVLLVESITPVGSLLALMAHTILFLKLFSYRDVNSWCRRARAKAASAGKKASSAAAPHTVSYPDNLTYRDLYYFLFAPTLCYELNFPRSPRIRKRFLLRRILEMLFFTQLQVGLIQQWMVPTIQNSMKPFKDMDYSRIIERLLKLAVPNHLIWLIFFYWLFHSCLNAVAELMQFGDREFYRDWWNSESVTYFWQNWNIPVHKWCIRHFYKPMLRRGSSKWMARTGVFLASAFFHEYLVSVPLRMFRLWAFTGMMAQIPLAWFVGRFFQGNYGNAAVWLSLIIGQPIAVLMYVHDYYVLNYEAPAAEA
Method: DGAT-1 enzyme assay Inhibitors of DGAT-1 are identified with an in vitro enzymatic assay which uses recombinant human DGAT-1 expressed in sf9 insect cells as an enzyme source. DGAT-1 enzyme is produced by infecting cells with recombinant baculovirus containing a DGAT-1 expression vector. After 48 hr infection cells are harvested by centrifugation, resuspended in cold 20 mM NaCl, and disrupted with a Dounce homogenizer. Fifteen milliliters of 20 mM NaCl are added to a cell pellet for each liter of infected cell suspension. DNA in the homogenate is sheared by pulling the cell extract through a 25 gauge needle. DGAT-1 activity in the baculovirus infected cell homogenate is compared to homogenate from uninfected cells to assess background enzymatic activity associated with sf9 cells.
Assays are performed in 96 well plates using a modification of the assay described by Coleman (Methods in Enzymology 209. pp 98-102 (1992)). Briefly, compounds are tested in a 1:3 serial dilution scheme from 100 μM to 1.7 nM final concentration. The enzyme reaction mixture contains substrates 250 μM 1,2-sn-diacylglycerol (Avanti Polar Lipids), 5 μM ^14C oleoyl CoA, and 45 μM oleoyl CoA in an aqueous buffer containing 150 mM Hepes buffer pH7.4, 0.7% vol/vol Triton® X-100 and Complete™ protease inhibitors. […] One hundred microliters of scintillation cocktail is then added and, after 8 hr, plates are counted. […]

Male Sprague-Dawley rats = assay: Oil bolus absorption model (plasma triglyceride after olive oil bolus); type: in vivo, rat; details: for ED80: dose reducing increase in plasma triglyceride by 80%
Method: Male Sprague-Dawley rats (280-320 g, n=6 per test group) on regular chow are acclimated to the test vivarium for at least 1 week prior to compound evaluation. Prior to compound testing, rats are fasted for 16 hour. Compounds are administered via oral gavage in a vehicle of 10% ethanol/90% corn oil at a volume of 1 ml/kg. Four hours after compound administration, a 0.5 ml blood sample is collected via the tail vein. Immediately following the 4 hour blood collection, a 3.0 ml bolus of olive oil is administered by oral gavage. A final blood sample is collected from the tail vein 6 hours after compound administration. Plasma is prepared from blood samples by centrifugation and analyzed for both triglyceride content, using a Hitachi 912 clinical chemistry analyzer, and test compound levels. The effective dose that reduces the increase in plasma triglyceride by 50% (ED50) and 80% (ED80) is determined DGAT-1 inhibition is indicative of the ability of the test compound to inhibit the increase in plasma triglyceride that occurs between hours 4 and 6 of the study (between 14 and 16 hours in the modified model) in vehicle treated (control) animals. In a modification of the model, compound is administered 14 hours prior to the first blood sample collection and oil bolus administration. The final blood sample is collected at 16 hours after dosing. In this longer duration version of the model, the 10% ethanol/90% corn oil vehicle is administered, without compound, at 10 hours after compound dosing to be consistent with the shorter duration version of the model. Compounds are tested substantially by the oil bolus absorption rat model method described herein.
For the compound N-[1-[[(4R)-5,6-dihydro-4H-imidazo[1,2-a][1]benzazepin-4-yl]carbamoyl]cyclopropyl]-4-ethoxy-benzamide (Examples 1, 3, 57), the three experiments used doses of 1, 3, 10 and 30 mg/kg. For the compound 4-Chloro-N-[1-[[(4R)-5,6-dihydro-4H-imidazo[1,2-a][1]benzazepin-4-yl]carbamoyl]cyclopropyl]benzamide (Examples 2, 21, 58), experiment 1 used doses of 0.3, 1, 3, 10 and 30 mg/kg, and for experiments 2 and 3, the doses used are 0.1, 0.3, 1, 3 and 10 mg/kg.
The data are analyzed using meta-analysis. The overall ED50 (ED80) is estimated as the weighted average of ED50 (ED80) from individual studies, with the weights being the inverse of variance of ED50 (ED80) estimates. The homogeneity Q-test is performed. If the test is significant at 0.10 level, a mixed-effect model is used to include both inter-study and intra-study variability. The weights are adjusted to the inverse of the sum of inter-study variance and the intra-study variance of ED50 (ED80) from individual studies. The inter-study variance is estimated by the Paule-Mandel estimator. (References: Sutton, A. J., Jones, D. R., Abrams, K. R., Sheldon, T. A., and Song, F., Methods for Meta-analysis in Medical Research London, John Wiley, ISBN 0-471-49066-0 (2000). Dersimonian R., and Kacker, R., Random-effects model for meta-analysis of clinical trials: An update, Contemporary Clinical Trials 28 p 105-114 (2007).

IC50 (recombinant human DGAT-1)	SMILES	Vehicle controlled percent Fat Mass Change, Mean ([1]; 3 mg/kg − control)	Vehicle controlled percent Food Intake Change, Mean ([1]; 3 mg/kg − control)	Vehicle controlled percent Body Weight Change, Mean ([1]; 3 mg/kg − control)	Vehicle controlled percent Fat Mass Change, Mean ([1]; 30 mg/kg − control)	Vehicle controlled percent Food Intake Change, Mean ([1]; 30 mg/kg − control)	Vehicle controlled percent Body Weight Change, Mean ([1]; 30 mg/kg − control)	EC50 (mouse 3T3-L1 adipocytes)	ED50 (Male Sprague-Dawley rats; 16 hour oil bolus study, rat, oral gavage, dose reducing increase in plasma triglyceride by 50%, individual experiments)	ED80 (Male Sprague-Dawley rats; 16 hour oil bolus study, rat, oral gavage, individual experiments)	ED80 Mean (meta-analysis) (Male Sprague-Dawley rats; 16 hour oil bolus study, weighted average of three experiments)	ED50 (Male Sprague-Dawley rats; Rattus norvegicus, 16 h, 16 hour oil bolus study, weighted average of three experiments, read-out: ED50 Mean (meta-analysis))	Vehicle controlled percent Fat Mass Change, Mean ([1]; 10 mg/kg − control)	Vehicle controlled percent Food Intake Change, Mean ([1]; 10 mg/kg − control)	Vehicle controlled percent Body Weight Change, Mean ([1]; 10 mg/kg − control)	ED50 (Male Sprague-Dawley rats; 6 hour oil bolus study, rat, oral gavage, dose reducing increase in plasma triglyceride by 50%, individual experiments)	ED80 (Male Sprague-Dawley rats; 6 hour oil bolus study, rat, oral gavage, individual experiments)	ED80 Mean (meta-analysis) (Male Sprague-Dawley rats; 6 hour oil bolus study, weighted average of experiments)	ED50 (Male Sprague-Dawley rats; Rattus norvegicus, 6 h, 6 hour oil bolus study, weighted average of experiments, read-out: ED50 Mean (meta-analysis))
134 ± 8 nM	CCOc1ccc(C(=O)NC2(C(=O)N[C@@H]3CCc4ccccc4-n4ccnc43)CC2)cc1 [Example 1, N-[1-[[(4R)-5,6-dihydro-4H-imidazo[1,2-a][1]benzazepin-4-yl]carbamoyl]cyclopropyl]-4-ethoxy-benzamide]	−6.69%	−10.11%	−4.74%	−8.24%	−11.35%	−5.31%	175 nM	1.71 mg/kg and 12.37 mg/kg and 2.92 mg/kg	5.52 mg/kg and 19.61 mg/kg and 7.64 mg/kg	7.34 mg/kg	5.3 mg/kg	–	–	–	–	–	–	–
89 ± 0.98 nM	O=C(NC1(C(=O)N[C@@H]2CCc3ccccc3-n3ccnc32)CC1)c1ccc(Cl)cc1 [Example 2, 4-Chloro-N-[1-[[(4R)-5,6-dihydro-4H-imidazo[1,2-a][1]benzazepin-4-yl]carbamoyl]cyclopropyl]benzamide]	−9.53%	−11.31%	−4.65%	–	–	–	213 nM	–	–	–	–	−8.41%	−8.43%	−4.54%	0.26 mg/kg and 0.73 mg/kg and 0.57 mg/kg	0.45 mg/kg and 2.22 mg/kg	0.54 mg/kg	0.32 mg/kg
